From patent US9493468B2, “Antifungal 5,6-dihydro-4H-pyrrolo[1,2-a][1,4]benzo-diazepines and 6H-pyrrolo[1,2-a][1,4]benzodiazepines substituted with heterocyclic derivatives” (Janssen Pharmaceutica NV, priority 2011, dated 2016)

What was measured:
Type in all cases: cell-based
[1] = system: Cryptococcus neoformans; assay: Antifungal activity in vitro, resazurin growth inhibition: Cryptococcus neoformans (B66663)
Procedure, shortened: (§1)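 Compound dilutions, with 64 μM as the highest in-test level, are spotted onto plates, then an inoculum of 10^3 cfu in RPMI-1640 plus 2% glucose (MOPS, pH 7.0±0.1) is added. Plates are incubated at species-dependent time and temperature, up to a week or more at 27° C. for dermatophytes.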

[2] = system: Sporothrix schenkii; assay: Antifungal activity in vitro, resazurin growth inhibition: Sporothrix schenkii (B62482)
Procedure, shortened: as §1

[3] = system: Trichophyton rubrum; assay: Antifungal activity in vitro, resazurin growth inhibition: Trichophyton rubrum (B68183)
Procedure, shortened: (§2)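 Broth microdilution: RPMI-1640/L-Gln/2% glucose, MOPS pH 7.0±0.1; 10^3 cfu/well; top concentration 64 μM, 2- or 4-fold steps. Dermatophytes at 27° C., one week or more. Resazurin 0.005% (w/v) added, fluorescence 550/590 nm.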

[4] = system: Scedosporium prolificans; assay: Antifungal activity in vitro, resazurin growth inhibition: Scedosporium prolificans (IHEM21157)
Procedure, shortened: as §1

[5] = system: Aspergillus fumigatus; assay: Antifungal activity in vitro, resazurin growth inhibition: Aspergillus fumigatus (B42928)
Procedure, shortened: as §1

[6] = system: Rhizopus oryzae; assay: Antifungal activity in vitro, resazurin growth inhibition: Rhizopus oryzae (IHEM5223)
Procedure, shortened: as §1

[7] = system: Scedosporium apiospermum; assay: Antifungal activity in vitro, resazurin growth inhibition: Scedosporium apiospermum (IHEM3817)
Procedure, shortened: as §1

[8] = system: Candida parapsilosis; assay: Antifungal activity in vitro, resazurin growth inhibition: Candida parapsilosis (B66126)
Procedure, shortened: as §1

[9] = system: Trichophyton mentagrophytes; assay: Antifungal activity in vitro, resazurin growth inhibition: Trichophyton mentagrophytes (B70554)
Procedure, shortened: as §2

[10] = system: Rhizomucor miehei; assay: Antifungal activity in vitro, resazurin growth inhibition: Rhizomucor miehei (IHEM13391)
Procedure, shortened: as §1

[11] = system: Microsporum canis; assay: Antifungal activity in vitro, resazurin growth inhibition: Microsporum canis (B68128)
Procedure, shortened: as §2

Compound | Inf. F: Cryptococcus neoformans B66663, pIC50 [1] | Inf. A: Sporothrix schenkii B62482, pIC50 [2] | Inf. C: Trichophyton rubrum B68183, pIC50 [3] | Inf. I: Scedosporium prolificans IHEM21157, pIC50 [4] | Inf. E: Aspergillus fumigatus B42928, pIC50 [5] | Inf. J: Rhizopus oryzae IHEM5223, pIC50 [6] | Inf. H: Scedosporium apiospermum IHEM3817, pIC50 [7] | Inf. D: Candida parapsilosis B66126, pIC50 [8] | Inf. G: Trichophyton mentagrophytes B70554, pIC50 [9] | Inf. K: Rhizomucor miehei IHEM13391, pIC50 [10] | Inf. B: Microsporum canis B68128, pIC50 [11]
FC(F)(F)c1ccc(C2=NCc3c(Cl)cccc3-n3cccc32)cn1 [Compound 89] | <4.19 | <4.19 | 6.75 | 6.28 | 5.70 | <4.19 | <4.19 | 6.17 | 6.23 | <4.19 | 6.14
Cc1cccc2cc(C3=NCc4ccccc4-n4cccc43)oc12 [Compound 130] | 6.31 | 5.50 | 7.69 | 5.08 | 6.00 | 4.95 | 6.01 | 5.35 | 6.79 | 4.91 | 6.70
CC(F)(F)c1ccc(C2=NCc3c(Cl)cccc3-n3cccc32)cn1 [Compound 82] | <4.19 | <4.19 | 6.85 | 6.24 | 6.28 | <4.19 | 6.01 | 5.285 | 6.24 | <4.19 | 6.37
Fc1cccc2cc(C3=NCc4c(Cl)cccc4-n4cccc43)sc12 [Compound 170] | 6.47 | 5.55 | 6.63 | 6.51 | 5.74 | <4.19 | 5.63 | <4.19 | 6.18 | <4.19 | 6.23
Fc1cccc2cc(C3=NCc4c(Cl)cccc4-n4cccc43)oc12 [Compound 127] | 5.22 | <4.19 | 6.94 | 6.64 | 6.31 | <4.19 | 4.80 | <4.19 | 6.40 | <4.19 | 6.44
CC(F)(F)c1ccc(C2=NCc3c(Cl)cc(F)cc3-n3cccc32)cn1 [Compound 85] | 5.86 | 4.63 | 6.81 | 4.81 | 6.28 | <4.19 | 5.44 | 5.61 | 6.60 | <4.19 | 6.73
Cn1nnc2ccc(C3=NCc4c(Cl)cc(Cl)cc4-n4cccc43)cc21 [Compound 111] | 5.74 | 4.41 | 6.09 | 6.77 | 5.76 | <4.19 | 5.77 | <4.19 | 5.31 | 4.53 | 5.69
Clc1ccc2c(c1)-n1cccc1C(c1cc3ccccc3o1)=NC2 [Compound 119] | 6.40 | 6.00 | 6.87 | 6.17 | 6.30 | <4.19 | <4.19 | 5.61 | 6.62 | <4.19 | 6.54
Cn1nnc2ccc(C3=NCc4c(Cl)cccc4-n4cccc43)cc21 [Compound 110] | 5.09 | 4.44 | 5.96 | 5.89 | 5.50 | <4.49 | 4.77 | 4.58 | 5.60 | <4.49 | 5.30
CC(F)(F)c1ccc(C2=NCc3c(F)cccc3-n3cccc32)cn1 [Compound 83] | <4.19 | <4.19 | 6.68 | 6.09 | 5.33 | <4.19 | <4.19 | <4.19 | 5.88 | <4.19 | 4.97
CC(=O)c1ccc(C2=NCc3c(Cl)cccc3-n3cccc32)cn1 [Compound 92] | <4.19 | <4.19 | 6.09 | <4.19 | <4.19 | <4.19 | <4.19 | <4.19 | <4.19 | <4.19 | <4.19
c1ccc2c(c1)CN=C(c1cc3ccccc3s1)c1cccn1-2 [Compound 163] | 6.51 | 5.59 | 6.71 | 6.27 | 5.61 | 4.98 | 5.63 | 5.12 | 5.99 | 5.06 | 6.14
